According to patent US20230183753A1, “Methods of in Vitro Cell Delivery” (Intellia Therapeutics, Inc., priority 2020, published 2023):

Columns and labels:
Assay type in all cases: cell-based, human
AAVS1 [1] = test: Percent editing at AAVS1 by NGS in NK cells with DNAPK inhibitors, Example 29; settings: LNP 10 ug/ml total RNA cargo, seven days post LNP treatment
Description: (§1) Human primary NK cells were activated and expanded using K562-41BBL cells as feeder cells in OpTmizer media with 5% human AB serum, 500 U/mL IL-2, and 5 ng/ml IL-15 for 3 days. NK cells were plated at 50,000 cells per well in triplicate in OpTmizer media supplemented as described above with DNAPKi at concentrations indicated in Tables 78 and 79. […] The pre-incubated LNPs were added to NK cells suspended in the same media at a final concentration of 10 ug/ml of total RNA cargo in triplicate. For a subset of samples, AAV encoding GFP flanked by regions homologous to the AAVS1 edit site were added at a multiplicity of infection (MOI) of 600,000 genome copies following editing.

AAVS1 [2] = test: GFP insertion (GFP++) in NK cells with LNP, AAV and DNAPK inhibitors, Example 29; settings: LNP 10 ug/ml, seven days following editing
Description: as §1

TRAC = test: Lipid screen in activated B cells: percent editing by NGS, Example 23.3; settings: LNPs formulated with the named ionizable lipid, 5 μg/ml
Description: A leukopak from a healthy human donor was obtained commercially (Hemacare) and B cells were isolated by CD19 positive selection using the StraightFrom Leukopak CD19 MicroBead kit (Miltenyi, 130-117-021) on a MultiMACS Cell24 Separator Plus instrument. Following MACS isolation, CD19+ B cells were activated in B Cell Media 3 or B Cell Media 7, each supplemented with 100 ng/ml MEGACD40L. […] LNPs were generally prepared as Example 1 using the ionizable and PEG lipids described in Table 68 with the lipid composition expressed as the molar ratio of ionizable lipid/cholesterol/DSPC/PEG, respectively.
Editing was more efficient in B cells cultured in StemSpan compared to IMDM.

B2M [3] = test: B2M editing by NGS in T cells with different ionizable lipid formulations (Lipid A, Lipid B), Example 7; settings: LNPs formulated with the named ionizable lipid
Description: LNPs formulated with different ionizable lipids were tested for T cell delivery efficacy. T cells were prepared, thawed and activated as in Example 5. Forty-eight hours post activation, T cells were treated with LNPs delivering Cas9 mRNA and gRNA G000529 (SEQ ID NO: 701) targeting B2M. LNPs were generally prepared as Example 1. Lipid A formulations were prepared at a ratio of 50/9/38/3 ionizable Lipid A, cholesterol, DSPC, and PEG2k-DMG. Lipid B compositions were formulated at a ratio of 50/10/38.5/1.5 ionizable lipid nonyl 8-((8,8-bis(octyloxy)octyl)(2-hydroxyethyl)amino)octanoate, cholesterol, DSPC, and PEG2k-DMG.

B2M [4] = test: B2M negative B cells after LNPs preincubated with ApoE3 or ApoE4, Example 23.4; settings: LNPs formulated with the named ionizable lipid
Description: B cells (Hemacare) were thawed and activated in Stemspan SFEM media with 1 ug/ml CpG ODN 2006 (Invivogen, cat. tlrl-2006-1), 50 ng/ml IL-2 (Peprotech, cat. 200-02), 50 ng/ml IL-10 (Peprotech, cat. 200-10), 10 ng/ml IL-15 (Peprotech, cat. 200-15), 1 ng/ml MegaCD40L (Enzo Life Sciences, cat. ALX-522-110-0000), 1% penicillin-streptomycin and 5% human AB serum. B cells were considered activated in the presence of 1 ng/mL MegaCD40L (Enzo Life Sciences, cat. ALX-522-110-0000) and 1 ug/mL CpG ODN 2006 (Invivogen, cat. tlrl-2006-1). Two days following activation, B cells were treated with LNPs delivering Cas9 mRNA and gRNA G000529 (SEQ ID NO: 701) targeting B2M. LNPs were generally prepared as Example 1 using the ionizable lipids described in Table 69 with the lipid composition of 50/10/38.5/1.5, expressed as the molar ratio of ionizable lipid/cholesterol/DSPC/PEG, respectively. […] Five days post LNP treatment, cells were phenotyped by flow cytometry. Briefly, B cells were incubated with antibodies targeting B2M (Biolegend, cat. 395806), CD19 (Biolegend, cat. 302205), CD20 (Biolegend, cat. 302322), CD86 (Biolegend cat. 305420). Cells were subsequently washed in DAPI (Thermo Fisher, cat. D1306) diluted 1:3703 in PBS, processed on a Cytoflex instrument (Beckman Coulter) and analyzed using the FlowJo software package. B cells were gated on size, singlets, and live cells.

B2M [5] = test: Percent editing by NGS in monocytes and macrophages with Lipid A or Lipid D LNPs, Example 34; settings: LNP formulations with the named lipid; Day 0 and Day 5 post thaw
Description: CD14+ cells were isolated as in Example 31 and frozen for future use. CD14+ cells were thawed and cultured in triplicate at 100,000 cells/well in OpTmizer base media as described in Table 2 with 10 ng/mL GM-CSF (Stemcell, 78140.1) on non-tissue culture plates (Falcon, 351172) for ease of detachment. Cells were treated with LNPs delivering mRNA encoding Cas9 (SEQ ID NO. 6) and gRNA G000529 (SEQ ID NO. 701) targeting B2M. For monocytes, LNP addition occurred on the same day as plating on tissue culture plates. […] LNPs were generally prepared as Example 1 using the ionizable lipids indicated in Tables 84 and 85 with the lipid composition of 50/10/38.5/1.5, expressed as the molar ratio of ionizable lipid/cholesterol/DSPC/PEG, respectively. […] The pre-incubated LNPs were added to cells in 1:1 v/v ratio, yielding a final total RNA cargo dose of 2.5 ug/mL or 5 ug/mL.
Briefly, cells were incubated with antibodies targeting CD68, CD11b and HLA-ABC (Biolegend, 311432) as generally as described in Example 31. HLA-ABC targeting antibody was used in place of B2M. Cells were subsequently washed, processed on a Cytoflex instrument (Beckman Coulter) and analyzed using the FlowJo software package. Cells were gated on size, CD68+, CD11b+ followed by HLA-ABC− population. NGS editing data is shown is Table 85. […] Editing was also observed when cells were cultured in RPMI or XVIVO-15 media.

B2M locus = test: Insertion into B cells with LNP and AAV6: GFP positive and B2M negative cells, Example 26; settings: Day 7 post-treatment; LNP with the named ionizable lipid 5 μg/ml plus AAV6
Description: B cells were isolated as Example 23.3. and were activated in B cell media 9 as described in Table 64, supplemented with 1 ng/ml MEGACD40L. Two days following activation, B cells were treated with LNPs delivering mRNA encoding Cas9 (SEQ ID NO. 6) and gRNA G000529 (SEQ ID NO: 701) targeting the B2M locus as well as with AAV6 for GFP template insertion into the B2M locus (SEQ ID NO. 722) driven by the EF1α promoter. LNPs were generally prepared as described in Example 1 using Lipid A and Lipid D as the ionizable lipids with the lipid composition of 50/10/38.5/1.5, expressed as the molar ratio of ionizable lipid/cholesterol/DSPC/PEG, respectively.
B cells were phenotyped for GFP expression on Day 7. For B cell phenotyping by flow cytometry, B cells were stained with antibodies targeting CD19 (Biolegend, 302218), CD20 (Biolegend, 302322), CD86 (Biolegend, 374216) and B2M (Biolegend, 316312). Cells were subsequently stained with a viability dye (Biolegend, 422801), washed, and processed on a Cytoflex instrument (Beckman Coulter). Results were analyzed using the FlowJo software package. B cells were gated based on size and viability, followed by GFP expression on the total live population.

TRBC [6] = test: CD3 negative cells after treating non-activated T cells with LNPs preincubated with ApoE3, ApoE4 or ApoA1, Example 19
Description: Healthy human donor leukopak was obtained commercially (Hemacare) and T cells were isolated by CD4/CD8 positive selection using the StraightFrom® Leukopak® CD4/CD8 MicroBeads (Miltenyi, Catalog, 130-122-352) following the manufacturer's protocol on MultiMACS Cell24 Separator Plus instrument.
Upon thaw, T cells were cultured in complete T cell media: T cell base media composed of XVIVO-15 media (Fisher, BE02-060Q), 1% Pen-Strep (Corning, 30-002-CI), 50 uM beta-mercaptoethanol, and N-Acetyl L-Cysteine (Fisher, ICN19460325), which was further supplemented with 5% human AB serum (Gemini Bio Products, 100-512), 200 U/mL IL-2 (Peprotech, 200-02), 5 ng/mL IL7 (Peprotech, 200-07), 5 ng/mL IL-15 (Peprotech, 200-15)). At this stage, a portion of cells were activated by addition of 1:100 dilution of TransAct (Miltenyi Biotech, Catalog #130-111-160). All cells were cultured at 37 C for 48 hours.
LNPs were generally prepared as Example 1 with the lipid composition of 50/9/39.5/1.5, expressed as the molar ratio of ionizable lipid A/cholesterol/DSPC/PEG, respectively.
Briefly, T cells were incubated in antibody targeting CD3 (Biolegend, 300441). Cells were subsequently washed, analyzed on a CytoFLEX S instrument (Beckman Coulter) using the FlowJo software package. T cells were gated on size and CD3 expression.

TRBC [7] = test: CD3 negative cells after treating activated T cells with LNPs preincubated with ApoE3, ApoE4 or ApoA1, Example 19
Description: All cells were cultured at 37 C for 48 hours. 100,000 T cells were resuspended in complete T cell media without human serum for 15-30 min prior to LNP transfection.
Cells were washed 48 hr post LNP treatment with T cell media to wash and replaced with fresh complete T cell media.
Five days post LNP treatment, T cells were phenotyped by flow cytometry to determine CD3 protein surface expression. […] Cells were subsequently washed, analyzed on a CytoFLEX S instrument (Beckman Coulter) using the FlowJo software package. T cells were gated on size and CD3 expression.

[8] = Apo protein 0.08 ug/mL, Biological Replicate1, LNP 4 ug/mL
[9] = Apo protein 0.08 ug/mL, Biological Replicate2, LNP 4 ug/mL
[10] = Apo protein 1.25 ug/mL, Biological Replicate1, LNP 4 ug/mL
[11] = Apo protein 1.25 ug/mL, Biological Replicate2, LNP 4 ug/mL
[12] = Apo protein 5.00 ug/mL, Biological Replicate1, LNP 4 ug/mL
[13] = Apo protein 5.00 ug/mL, Biological Replicate2, LNP 4 ug/mL
[14] = Apo protein 10.00 ug/mL, Biological Replicate1, LNP 4 ug/mL
[15] = Apo protein 10.00 ug/mL, Biological Replicate2, LNP 4 ug/mL

Cc1cc2ncnn2cc1Nc1ncc2c(n1)n(C1CCC3(CC1)CC3)c(=O)n2C [Compound 4, 7-methyl-2-((7-methyl-[1,2,4]triazolo[1,5-a]pyridin-6-yl)amino)-9-(spiro[2.5]octan-6-yl)-7,9-dihydro-8H-purin-8-one] was tested, and the “Mean percent editing at AAVS1” value (AAVS1 [1]; DNAPKi 0.125 uM) was 96.77%, the “Mean percent editing at AAVS1” value (AAVS1 [1]; DNAPKi 0.5 uM) was 97.67% and the “Mean percent editing at AAVS1” value (AAVS1 [1]; DNAPKi […]) was 97.37%. The “Percent of NK cells with high GFP expression, Mean” value (“Percent of NK cells” for short) (AAVS1 [2]; AAV MOI 600,000, DNAPKi 0.125 uM) was 88.10%, the “Percent of NK cells” value (AAVS1 [2]; AAV MOI 600,000, DNAPKi 0.5 uM) was 90.27% and the “Percent of NK cells” value (AAVS1 [2]; AAV MOI 600,000, DNAPKi […]) was 90.63%.

CCCCC/C=C\C/C=C\CCCCCCCC(=O)OCC(COC(=O)CCC(OCCCCCCCC)OCCCCCCCC)COC(=O)OCCCN(CC)CC (stereo not shown) [Lipid A, (9Z,12Z)-3-((4,4-bis(octyloxy)butanoyl)oxy)-2-((((3-(diethylamino)propoxy)carbonyl)oxy)methyl)propyl octadeca-9,12-dienoate] was tested, and the “editing in activated B cells by NGS, in words” value (TRAC) was “Efficient editing was evident”, the “B2M editing in T cells by NGS, in words” value (B2M [3]) was “Efficient editing was evident” and the “B2M negative B cells, in words” value (B2M [4]) was “increased percentage of B2M negative cells”. For the same compound, the “editing in monocytes and macrophages, in words” value (B2M [5]) was “showed effective editing” and the “percentage of B cells expressing GFP” value (B2M locus) was 29.5%.

In the case of CCCCCCCCCOC(=O)CCCCCCCN(CCO)CCCCCCCC(OCCCCCCCC)OCCCCCCCC [Lipid B, nonyl 8-((8,8-bis(octyloxy)octyl)(2-hydroxyethyl)amino)octanoate], the “B2M editing in T cells by NGS, in words” value (B2M [3]) is reported as “Efficient editing was evident”.

In the case of CCCCCCCCCOC(=O)CCCCCCCN(CCO)CCCCCCC(OCCCCCCCC)OCCCCCCCC [Lipid C], the “editing in activated B cells by NGS, in words” value (TRAC) is reported as “Efficient editing was evident”.

CCCCCCCCCOC(=O)CCCCCCCN(CCO)CCCCCCC(OCCCCCCCC)OCCCCCCCC [Lipid D] was tested, and the “B2M negative B cells, in words” value (B2M [4]) was “increased percentage of B2M negative cells”, the “editing in monocytes and macrophages, in words” value (B2M [5]) was “showed effective editing” and the “percentage of B cells expressing GFP” value (B2M locus) was 14.5%.

In the case of “ApoA1: Recombinant Human ApoA1 used to preincubate LNPs”, the “Percent CD3 negative cells” value (TRBC [6]; [8]) is reported as 4.2%, the “Percent CD3 negative cells” value (TRBC [6]; [9]) is reported as 6.2% and the “Percent CD3 negative cells” value (TRBC [6]; [10]) is reported as 4.7%. The “Percent CD3 negative cells” value (TRBC [6]; [11]) was 4.2%, the “Percent CD3 negative cells” value (TRBC [6]; [12]) was 6.1% and the “Percent CD3 negative cells” value (TRBC [6]; [13]) was 4.8%. The “Percent CD3 negative cells” value (TRBC [6]; [14]) was 5.4%, the “Percent CD3 negative cells” value (TRBC [6]; [15]) was 3.8% and the “editing (CD3 negative cells) with LNPs preincubated with Apo protein, in words” value (TRBC [6]; Apo protein 0.08-10 ug/mL) was “none of the tested concentrations of ApoA1 protein led to efficient editing”. The “Percent CD3 negative cells” value (TRBC [7]; [8]) was 2.9%, the “Percent CD3 negative cells” value (TRBC [7]; [9]) was 2.5% and the “Percent CD3 negative cells” value (TRBC [7]; [10]) was 2.8%. For the same compound, the “Percent CD3 negative cells” value (TRBC [7]; [11]) was 3.0%, the “Percent CD3 negative cells” value (TRBC [7]; [12]) was 2.5% and the “Percent CD3 negative cells” value (TRBC [7]; [13]) was 3.2%. The “Percent CD3 negative cells” value (TRBC [7]; [14]) was 3.6%, the “Percent CD3 negative cells” value (TRBC [7]; [15]) was 3.6% and the “editing (CD3 negative cells) with LNPs preincubated with Apo protein, in words” value (TRBC [7]; Apo protein 0.08-10 ug/mL) was “none of the tested concentrations of ApoA1 protein led to efficient editing”.
